Measurements reported in patent publication US4517299A, “Acetylesterases” (Fujisawa Pharmaceutical Co., Ltd., priority 1980, dated 1985).

Tests used:
[1] = tested on: Aureobasidium pullulans IFO 4466 Acetylesterase 4466-I (Enzyme solution A); assay: Determination of Km, hydrolysis of cephalosporin C to deacetylcephalosporin C (HPLC); assay type: biochemical; conditions: 0.05M acetate buffer pH 4.0, 30° C., one hour, cephalosporin C sodium dihydrate 0.2-5%, read-out: Km (substrate cephalosporin C)
Experimental: (§1) (In case that the substrate is cephalosporin C)
(§2) Km values of Acetylesterase 4466-I and Acetylesterase 4466-II were determined in the following method.
(§3) To 0.05M acetate buffer solution (pH 4.0) containing cephalosporin C sodium dihydrate in a various concentration (0.2-5%)(4.5 ml), was added enzyme solution (0.5 ml).
(§4) The reaction mixture was incubated on a shaker at 30° C. for an hour. Subsequently, produced deacetyl cephalosporin C and unreacted cephalosporin C were determined by high pressure liquid chromatography. Km values of each esterase were calculated in a conventional manner.

[2] = tested on: Aureobasidium pullulans IFO 4466 Acetylesterase 4466-II (Enzyme solution B); assay: as above; assay type: biochemical; conditions: 0.05M acetate buffer pH 4.0, 30° C., one hour, cephalosporin C sodium dihydrate 0.2-5%, read-out: Km (substrate cephalosporin C)
Experimental: as §1, §2, §3, §4

CC(=O)OCC1=C(C(=O)O)N2C(=O)[C@@H](NC(=O)CCC[C@@H](N)C(=O)O)[C@H]2SC1 [cephalosporin C]
Km [1]: 11.5 mM
Km [2]: 13.7 mM
